This is an account of results in PubChem BioAssay (NCI).

Test in all cases: NCI tumour cell line growth inhibition, 48 h
Experiment [1] relates to LXFL 529 NSCLC.
In experiment [2] the test system is DLD-1 colon.
Experiment [3] relates to DMS 114 small cell lung.
Experiment [4] has as its system RXF-631 renal.
Experiment [5] concerns DMS 273 small cell lung.
Experiment [6] deals with XF 498 CNS.
Experiment [7] concerns P388/ADR leukemia.
Experiment [8] has as its system SN12K1 renal.
The test system of experiment [9] is P388 leukemia.

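1) Cells in 96-well plates. 2) Compound, 48 h, 5 concentrations. 3) Linear interpolation between surrounding doses. 4) Unreached endpoint = highest concentration. At the TGI there is no net growth.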 A value given as a limit tells only on which side of the number the result lay.

In the case of `O=C(O)C(CS)N=c1c2ccccc2n(O)c2ccccc12` (stereo not given), the TGI in experiment [1], in experiment [2], in [3], in [4] and in experiment [5] was above 100 µM throughout.

Take `COC1(OC)CCCCC2c3cccc(OC(C)=O)c3C21OC(C)=O` (stereo not given): the TGI in experiment [6], in experiment [1], in [2], in [3] and in [5] was above 100 µM throughout.

On to `COC(=O)C1CC2(c3ccccc3)C(=O)c3ccccc3N2O1` (stereo not given), for which the TGI in experiment [1], in [2], in experiment [3] and in [5] was above 100 µM in each case.

Turning to `COC(=O)/C=C/c1cc(OC)c(OC)c(OC)c1`, the TGI in [6], in experiment [1], in [2], in experiment [3], in [4] and in experiment [5] was above 100 µM each time.

On to `C=CCOCCCCC(C(C)=O)C(=O)OC` (stereo not given), for which the TGI in experiment [6], in experiment [1] and in experiment [2] was above 100 µM in each case.

For `O=C(CC1=NCCN1)c1ccccc1`, the TGI in experiment [6], in [2], in experiment [3], in experiment [7], in [8] and in experiment [5] was above 750 µM throughout. In experiment [9], the TGI is above 750 µM.

Consider `O=C(O)C(CO)NC(=O)n1c2ccccc2c2ccccc21` (stereo not given), for which the TGI in experiment [6], in experiment [1], in [2], in experiment [3] and in [5] was above 100 µM each time.

`O=C1C(Cl)N(c2ccccc2[N+](=O)[O-])C1c1c[nH]c2ccccc12` (stereo not given): the TGI in experiment [6], in experiment [1] and in experiment [3] was above 100 µM in each case.

For `O=C1NC2OC(CO)C(O)C(O1)C2O` (stereo not given), the TGI in [6], in experiment [1], in [2], in experiment [3] and in [5] was above 100 µM each time.

`COc1c(Br)cc(CC(N)=O)c(O)c1Br`: the TGI in experiment [6], in experiment [2], in experiment [3], in experiment [4] and in experiment [5] was above 100 µM each time.

Consider `NC(N)=Nc1ncccc1[N+](=O)[O-]`, for which the TGI was above 100 µM in experiment [6]; above 100 µM in experiment [2]; 30.5 µM in experiment [3]; above 100 µM in experiment [7]; above 100 µM in experiment [8]; above 100 µM in experiment [5]. Besides, the TGI in [9] is above 100 µM.
